Laboratory results published in ChEMBL document CHEMBL3046944, “NEW QUASSINOIDS FROM AILANTHUS EXCELSA” (Med Chem Res, 2004).
The source made the active and inactive calls. The calls are words filed in the database; no cut-off is given here.

Experiments:
Plasmodium falciparum [1] = experiment: Antimalarial activity against Plasmodium falciparum assessed as growth inhibition at 0.2 uM; format: functional, organism-based
Plasmodium falciparum [2] = experiment: Antimalarial activity against Plasmodium falciparum assessed as growth inhibition at 25 nM; format: functional, organism-based

Row | SMILES | growth inhibition (GI) (Plasmodium falciparum [1]) | growth inhibition (GI) (Plasmodium falciparum [2])
1 | CCC(C)C(=O)O[C@H]1C(=O)O[C@@H]2C[C@H]3C(C)=C[C@H](O)[C@@H](O)[C@]3(C)[C@H]3[C@@]4(O)OC[C@]32[C@@H]1[C@@H](C)[C@H]4O (some centres not stated) | Active | 
2 | CCN(CC)CCCC(C)Nc1ccnc2cc(Cl)ccc12 (configuration not stated) |  | Active
